Here are results for 23 compounds from PubChem BioAssay (NCI).

Common to all, as to assay: inhibition of tumour cell growth, NCI panel, 48 h
For assay [1], the system named is LXFL 529 NSCLC.
The test system of assay [2] is KM20L2 colon.
Assay [3] concerns HCT-116 colon.
For assay [4], the system named is HCC-2998 colon.
Assay [5] has as its system SK-MEL-28 melanoma.
Assay [6] has as its system SK-MEL-2 melanoma.
For assay [7], the system named is SK-MEL-5 melanoma.
Assay [8] deals with RXF 393 renal.
The test system of assay [9] is PC-3 prostate.
The subject of assay [10] is HS 578T breast.

SMILES strings stand for the structures. “And” between values parts separate entries of the source, which are not always exact repeats. Equal values may be shown once.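 Interpolation was linear, between the two tested concentrations surrounding the appropriate level; five concentrations were tested over 48 hours in 96-well plates. GI50 marks 50% less growth. TGI denotes the concentration required for complete inhibition of growth.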

With `Cc1nn(-c2ccccc2)c2nc(N3CCOCC3)nnc12`, the TGI in [1], in assay [2], in [3], in assay [4], in [5] and in assay [6] was > 100 µM throughout. Further, the TGI in assay [7] and in assay [8] was > 100 µM throughout.

Regarding `CC(CCC=O)CCOCc1ccccc1` (configuration not stated), the TGI in assay [1], in assay [2], in [9], in [3], in [4] and in [5] was > 100 µM each time. The TGI in assay [6] was > 100 µM; in assay [7], > 46.4 µM; in [10], > 100 µM; in [8], > 100 µM.

As to `COC(=O)c1cc2c(s1)C(=O)c1ccccc1-2`, the TGI in assay [1], in assay [2], in [3], in [4], in assay [5] and in [6] was > 100 µM in each case. The TGI in [7] and in [8] was > 100 µM throughout.

For `Cc1cc([N+](=O)[O-])ccc1Nc1cccc(Cl)c1C`, the TGI is 28.3 µM in assay [1]; 29.8 µM in [2]; 29.6 µM in [3]; 32.6 µM in assay [4]; 32.1 µM in [5]; 29 µM in [6]. For the same compound, the TGI worked out at 29.1 µM in assay [7] and 34.5 µM in [8].

Turning to `C=COCCCOc1ccccc1`, the TGI in [1], in [2], in [9], in assay [3], in assay [4] and in [5] was > 100 µM in each case. For the same compound, the TGI in assay [6], in [7], in assay [10] and in [8] was > 100 µM each time. Besides, the GI50 in [9] and in assay [10] was > 100 µM throughout.

Turning to `NNC(=S)N/N=C(\CC1OC(=O)c2ccccc21)c1ccccc1O` (configuration not stated), the TGI in [1], in assay [2], in assay [3], in assay [4], in assay [5] and in assay [6] was > 100 µM each time. For the same compound, the TGI in assay [7] is > 100 µM; in [8], 77.3 µM.

In the case of `COC1(OC)CC2C(=O)N(Cc3ccccc3)C1C(S(=O)(=O)c1ccccc1)C2S(=O)(=O)c1ccccc1` (configuration not stated), the TGI in assay [1] came to 12.1 µM; in assay [2] it was 31.4 µM; in [3] it was 29.9 µM; in assay [4], 31.1 µM; in assay [5] it was 26.8 µM; in assay [7], 34 µM. For the same compound, in assay [8], the TGI is 25.6 µM.

In the case of `CCC[CH2][Sn]1([CH2]CCC)[O]N=C(c2ccccc2)C(c2ccccc2)[O]1` (configuration not stated), the GI50 in [1] is 0.316 µM; in [2], 2.54 µM; in assay [3] it was 1.67 µM; in assay [4], 2.18 µM; in assay [5] it was 1.36 µM; in assay [6], 1.27 µM. Also, the GI50 in [7] was 1.62 µM; in assay [8], 1.5 µM. The TGI in [1] stood at 1.23 µM; in [2], 8.74 µM; in assay [3] it was 3.35 µM; in assay [4], 4.47 µM; in [5] it was 2.64 µM; in [6] it was 2.53 µM. In addition, the values for the TGI in assay [7] and in assay [8] were 3.23 µM and 2.87 µM, respectively.

`CN(C)c1ccc(C(C=C2c3ccccc3Sc3ccccc32)=C(C#N)C#N)cc1`: the TGI in assay [1], in assay [2], in assay [3], in [4], in assay [5] and in assay [6] was > 100 µM throughout. The TGI in [7] and in [8] was > 100 µM in each case.

As for `CN(C)/C=N/c1nc2c(ncn2C2OC(CO)C(O)C2O)c(=O)[nH]1` (configuration not stated), the TGI in assay [1], in assay [2], in assay [3], in assay [4], in assay [6] and in assay [7] was > 100 µM in each case. In addition, the TGI in [8] is > 100 µM.

Consider `COC(=O)C1=C(O)c2cc(OC)c(OC)cc2C(c2ccc(OC)c(OC)c2)C1` (configuration not stated), for which the TGI in assay [1], in [2], in assay [3], in [4], in assay [5] and in [6] was > 100 µM throughout. For the same compound, the TGI in assay [7] and in assay [8] was > 100 µM in each case.

On to `CNC(=O)N(C)N=NCCCl`, for which the TGI in [1], in assay [2], in assay [9], in assay [3], in [4] and in assay [5] was > 100 µM in each case. Further, the TGI in assay [6], in [7], in assay [10] and in assay [8] was > 100 µM throughout.

Take `C=C(c1nc2ccc(Cl)cc2[nH]c1=O)C(O)c1ccc(C(O)C(=O)c2nc3ccc(Cl)cc3[nH]c2=O)cc1` (configuration not stated): the TGI in [1], in assay [2], in assay [9], in [3], in [4] and in assay [5] was > 100 µM each time. Also, the TGI in [6], in [7], in assay [10] and in [8] was > 100 µM each time.

`O=C1c2cccc(NCCCNCCO)c2C(=O)c2cccc(NCCCNCCO)c21`: in assay [1], the GI50 is 0.844 µM and 2.22 µM. The TGI in [1] is 2.95 µM and 10.1 µM; in [2] it was 6.72 µM and 9.95 µM; in assay [9] it was 5.84 µM; in [3], 4.9 µM; in [4], 2.4 µM and 2.13 µM; in assay [5], 3.99 µM and 3.84 µM. Moreover, the TGI in assay [6] was 3.47 µM and 3.42 µM; in [7], 3.31 µM and 4.4 µM; in [10], 2.65 µM; in assay [8], 5.54 µM and 5.82 µM.

With `CC1=NNC(=O)C2CCC(=O)N12` (configuration not stated), the TGI in [1], in assay [2], in assay [3], in assay [4], in assay [5] and in assay [6] was > 100 µM each time. The TGI in [7] and in assay [8] was > 100 µM throughout.

`CN(C)c1nc2ccccc2[nH]1`: the TGI in assay [1], in [2], in [4], in assay [5], in assay [6] and in [7] was > 100 µM throughout. Further, the TGI in assay [8] is > 100 µM.

Consider `CC1=C(C(=O)Nc2ccccc2)C(c2ccccc2)C(C(=O)Nc2ccccc2)=C(C)N1`, for which the TGI in [1], in [2], in assay [3], in [4], in assay [5] and in [6] was > 100 µM throughout. Moreover, the TGI in [7] and in [8] was > 100 µM in each case.

Take `COc1ccc2c3c([nH]c2c1[N+](=O)[O-])C(C)=NCC3`: the TGI in [1], in assay [2], in [3], in [4], in assay [5] and in assay [6] was > 100 µM throughout. Besides, in assay [8], the TGI was > 100 µM.

On to `CCCN=C(N)NC#N`, for which the TGI in assay [1], in assay [2], in assay [3], in [4], in assay [5] and in assay [6] was > 100 µM in each case. Also, the TGI in assay [7] and in assay [8] was > 100 µM throughout.

With `CC(C)N(C(=O)C12C3C4C5(C#N)C3C1(C#N)C5C42I)C(C)C` (configuration not stated), the TGI was > 100 µM in assay [1]; > 100 µM in assay [2]; 31.5 µM in assay [3]; > 100 µM in [4]; > 100 µM in assay [5]; > 100 µM in assay [6]. Also, the TGI in assay [7] and in assay [8] was > 100 µM in each case.

`COc1cc(C(Cc2ccccc2)NC(C)=O)oc(=O)c1` (configuration not stated): the TGI in [1], in [2], in assay [4], in assay [5], in assay [6] and in assay [7] was > 100 µM throughout. Besides, the TGI in [8] was > 100 µM.

For the compound `CC(C)(C)CC(C)(C)c1cc2c(O)c(c1)Cc1cc(C(C)(C)CC(C)(C)C)cc(c1O)Cc1cc(C(C)(C)CC(C)(C)C)cc(c1O)Cc1cc(C(C)(C)CC(C)(C)C)cc(c1O)C2`, the TGI in assay [1], in assay [2], in [3], in assay [4], in [5] and in [6] was > 100 µM in each case. In addition, the TGI in assay [7] and in [8] was > 100 µM each time.

Turning to `CC(=O)c1cccc(NC(=O)C(=O)NNc2n[nH]c(=S)n2N)c1`, the TGI in assay [1] came out at 22.5 µM; in assay [2], 46.1 µM; in assay [9], 23 µM; in assay [3] it was 12.8 µM; in assay [4] it was 27.5 µM; in assay [5], 18.5 µM. Further, the TGI in [6] was 13.1 µM; in assay [7], 2.6 µM; in assay [10], 7.48 µM; in assay [8] it was 24.1 µM.
